Experimental data from patent US11236087B2, “Highly active pyrazolo-piperidine substituted indole-2-carboxamides active against the hepatitis B virus (HBV)” (AiCuris GmbH & Co. KG, priority 2017, dated 2022).

Tests used:
[1] = Cell viability assay (AlamarBlue) in HepAD38 cells; conditions: human
[2] = test system: HBV; assay: Determination of HBV DNA from the supernatants of HepAD38 cells (anti-HBV activity); assay type: cell-based, hepatitis B virus; conditions: Hepatitis B virus, 144 h; HBV DNA in HepAD38 supernatant, day 6, qPCR; read-out: Cell Activity (EC50)
Summary of the method: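 HepAD38 cells, tetracycline withdrawn to induce HBV, treated with serial half-log compound dilutions; on day 6 HBV DNA purified from filtered supernatant and quantified by real-time PCR against HBV plasmid standards; EC50 from relative copy numbers by non-linear regression, three experiments in triplicate.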

[3] = target: T1, HBV core protein (UniProt P03146); assay: Biochemical capsid assembly assay (fluorescence quenching); design: species or system hepatitis B virus; conditions: read-out: Assembly Activity (IC50); BODIPY-FL labelled core protein, 300 μM NaCl, read 6 min after start
T1 construct: fused on or other part: BODIPY-FL maleimide label on the C-terminal Cys150
Summary of the method: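 Purified E. coli-expressed HBV core protein (aa 1-149 plus Cys150), BODIPY-FL maleimide-labelled, at 1.0-2.0 μM in 50 mM HEPES pH 7.5 with 0.5% DMSO was used. Compounds were tested at 8 concentrations (0.5-log dilutions from 100, 31.6 or 10 μM). Assembly was started with NaCl ([…]), and fluorescence quenching was read after 6 min (ex 477/em 525 nm). EC50 was determined by non-linear regression.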

T1 sequence (P03146 whole entry, looked up, the tested form may be a part): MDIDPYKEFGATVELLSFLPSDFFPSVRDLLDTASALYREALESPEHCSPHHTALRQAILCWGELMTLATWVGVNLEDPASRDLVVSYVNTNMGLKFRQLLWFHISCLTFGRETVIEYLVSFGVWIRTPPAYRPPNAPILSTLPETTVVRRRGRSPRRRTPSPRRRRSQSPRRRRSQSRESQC

CC(=O)N1CCN(C(=O)c2n[nH]c3c2CN(C(=O)c2cc4ccccc4[nH]2)CC3)C(C)(C)C1 [Example 163, 1-{4-[5-(1H-indole-2-carbonyl)-1H,4H,5H,6H,7H-pyrazolo[4,3-c]pyridine-3-carbonyl]-3,3-dimethylpiperazin-1-yl}ethan-1-one]
CC50 at 6 days [1]: > 10 µM
EC50 [2]: 1 to 25 µM
IC50 [3]: < 100 µM

CC1(C)CCCCN1C(=O)c1n[nH]c2c1CN(C(=O)c1cc3ccccc3[nH]1)CC2 [Example 165, 2-[3-(2,2-dimethylpiperidine-1-carbonyl)-1H,4H,5H,6H,7H-pyrazolo[4,3-c]pyridine-5-carbonyl]-1H-indole]
CC50 at 6 days [1]: > 10 µM
EC50 [2]: < 1 µM
IC50 [3]: 5 to 10 µM

COCC1(N(C)C(=O)c2n[nH]c3c2CN(C(=O)c2cc4ccc(F)cc4[nH]2)CC3)CC1 [Example 166, 5-(6-fluoro-1H-indole-2-carbonyl)-N-[1-(methoxymethyl)cyclopropyl]-N-methyl-1H,4H,5H,6H,7H-pyrazolo[4,3-c]pyridine-3-carboxamide]
CC50 at 6 days [1]: > 10 µM
EC50 [2]: < 1 µM
IC50 [3]: < 5 µM

O=C(c1cc2ccccc2[nH]1)N1CCc2[nH]nc(C3CCC3)c2C1 [Example 167, 2-{3-cyclobutyl-1H,4H,5H,6H,7H-pyrazolo[4,3-c]pyridine-5-carbonyl}-1H-indole]
CC50 at 6 days [1]: > 10 µM
EC50 [2]: < 1 µM
IC50 [3]: < 5 µM

CN(C(=O)c1n[nH]c2c1CN(C(=O)c1cc3ccccc3[nH]1)CC2)C1CCCCC1 [Example 170, N-cyclohexyl-5-(1H-indole-2-carbonyl)-N-methyl-1H,4H,5H,6H,7H-pyrazolo[4,3-c]pyridine-3-carboxamide]
CC50 at 6 days [1]: > 10 µM
EC50 [2]: 1 to 25 µM
IC50 [3]: 5 to 10 µM

CN(CC(=O)OC(C)(C)C)C(=O)c1n[nH]c2c1CN(C(=O)c1cc3ccccc3[nH]1)CC2 [Example 171, tert-butyl 2-{1-[5-(1H-indole-2-carbonyl)-1H,4H,5H,6H,7H-pyrazolo[4,3-c]pyridin-3-yl]-N-methylformamido}acetate]
CC50 at 6 days [1]: > 10 µM
EC50 [2]: 1 to 25 µM
IC50 [3]: < 100 µM

CN(CCO)C(=O)c1n[nH]c2c1CN(C(=O)c1cc3c(C(F)F)ccc(F)c3[nH]1)CC2 [Example 172, 5-[4-(difluoromethyl)-7-fluoro-1H-indole-2-carbonyl]-N-(2-hydroxyethyl)-N-methyl-1H,4H,5H,6H,7H-pyrazolo[4,3-c]pyridine-3-carboxamide]
CC50 at 6 days [1]: > 10 µM
EC50 [2]: 1 to 25 µM
IC50 [3]: < 5 µM

CN(C(=O)c1n[nH]c2c1CN(C(=O)c1cc3ccccc3[nH]1)CC2)[C@H]1CC[C@H](O)CC1 [Example 173, 5-(1H-indole-2-carbonyl)-N-methyl-N-[(1r,4r)-4-hydroxycyclohexyl]-1H,4H,5H,6H,7H-pyrazolo[4,3-c]pyridine-3-carboxamide]
CC50 at 6 days [1]: > 10 µM
EC50 [2]: 1 to 25 µM
IC50 [3]: < 100 µM

CN(C(=O)c1n[nH]c2c1CN(C(=O)c1cc3ccccc3[nH]1)CC2)[C@H]1CC[C@@H](O)CC1 [Example 174, 5-(1H-indole-2-carbonyl)-N-methyl-N-[(1s,4s)-4-hydroxycyclohexyl]-1H,4H,5H,6H,7H-pyrazolo[4,3-c]pyridine-3-carboxamide]
CC50 at 6 days [1]: > 10 µM
EC50 [2]: 1 to 25 µM
IC50 [3]: < 100 µM

O=C(c1cc2ccccc2[nH]1)N1CCc2[nH]nc(C(=O)N3C[C@@H]4[C@@H](CO)[C@@H]4C3)c2C1 [Example 175, [(±)-3-[5-(1H-indole-2-carbonyl)-1H,4H,5H,6H,7H-pyrazolo[4,3-c]pyridine-3-carbonyl]-3-azabicyclo[3.1.0]hexan-6-yl]methanol]
CC50 at 6 days [1]: > 10 µM
EC50 [2]: 1 to 25 µM
IC50 [3]: 5 to 10 µM

O=C(c1cc2ccccc2[nH]1)N1CCc2[nH]nc(C(=O)N3C[C@@H]4[C@@H](O)[C@@H]4C3)c2C1 [Example 176, (±)-3-[5-(1H-indole-2-carbonyl)-1H,4H,5H,6H,7H-pyrazolo[4,3-c]pyridine-3-carbonyl]-3-azabicyclo[3.1.0]hexan-6-ol]
CC50 at 6 days [1]: > 10 µM
EC50 [2]: 1 to 25 µM
IC50 [3]: 5 to 10 µM
